{"source": "patent US11319299B2", "about": "“Substituted carboxamides as inhibitors of WDR5 protein-protein binding” (PROPELLON THERAPEUTICS INC., priority 2016, dated 2022)", "key": {"WDR5": {"target": "WDR5 (Homo sapiens (Human), UniProt P61964)", "experiment": "Surface Plasmon Resonance (SPR) assay, KD and residence time", "format": "binding", "conditions": "for Kd: read-out: WDR5 binding affinity (KD)"}, "MV4-11 cells": {"tested_on": "MV4-11 cells", "experiment": "Cell proliferation assay (ATPlite)", "format": "cell-based", "conditions": "Homo sapiens, MV4-11, 120 h; MV-411 cells, five days; read-out: In vitro whole cell potency in MV-411 cells, (IC50)", "method_in_brief": "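Read-out is ATP-based luminescence (ATPlite) after 5 days of culture at 37° C under 5% CO2. Compounds were given as 10-point dilutions starting at 10 μM to MV4-11 cells, seeded at 1,000 cells/well in Alpha-MEM plus 10% FBS.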"}, "[1]": {"conditions": "surface plasmon resonance (SPR)"}}, "note": "Where two headings read alike, the source gives them in different places.", "data": [{"smiles": "CC1CN(c2cc(F)c(-c3cnc(N4CCOCC4)nc3)cc2NC(=O)c2c[nH]c(=O)cc2C(F)F)CCN1C", "note": "(stereo in doubt) [Example 410, 4-(difluoromethyl)-N-[4-fluoro-5-(2-morpholin-4-ylpyrimidin-5-yl)-2-[(3R)-3,4-dimethylpiperazin-1-yl]phenyl]-6-oxo-1H-pyridine-3-carboxamide]", "values": [{"measurement": "Kd", "setting": "WDR5; [1]", "result": 0.84, "unit": "nM"}, {"measurement": "IC50", "setting": "MV4-11 cells", "result": 63, "unit": "nM"}]}, {"smiles": "CCN(C)C1CCN(c2cc(F)c(-c3cnc(N4C[C@@H](C)O[C@@H](C)C4)nc3)cc2NC(=O)c2c[nH]c(=O)cc2C(F)(F)F)C1", "note": "(stereo in doubt) [Example 418, N-[4-fluoro-5-[2-[(2R,6S)-2,6-dimethylmorpholin-4-yl]pyrimidin-5-yl]-2-[(3S)-3-[ethyl(methyl)amino]pyrrolidin-1-yl]phenyl]-6-oxo-4-(trifluoromethyl)-1H-pyridine-3-carboxamide]", "values": [{"measurement": "Kd", "setting": "WDR5; [1]", "result": 1.05, "unit": "nM"}, {"measurement": "IC50", "setting": "MV4-11 cells", "result": 70, "unit": "nM"}]}, {"smiles": "C[C@@H]1CN(c2ncc(-c3cc(NC(=O)c4ccc(F)cc4C(F)(F)F)c(N4CCN(C)[C@H](C)C4)cc3F)cn2)CCO1", "note": "(stereo in doubt) [Example 452, 4-fluoro-N-[4-fluoro-2-[(3R)-3,4-dimethylpiperazin-1-yl]-5-[2-[(2R)-2-methylmorpholin-4-yl]pyrimidin-5-yl]phenyl]-2-(trifluoromethyl)benzamide]", "values": [{"measurement": "Kd", "setting": "WDR5; [1]", "result": 0.493, "unit": "nM"}, {"measurement": "IC50", "setting": "MV4-11 cells", "result": 62, "unit": "nM"}]}, {"smiles": "CC1CN(c2cc(F)c(-c3cnc(N4CCNCC4)nc3)cc2NC(=O)c2cn(C)c(=O)cc2C(F)(F)F)CCN1C", "note": "(stereo in doubt) [Example 464, N-[4-fluoro-5-(2-piperazin-1-ylpyrimidin-5-yl)-2-[(3R)-3,4-dimethylpiperazin-1-yl]phenyl]-1-methyl-6-oxo-4-(trifluoromethyl)pyridine-3-carboxamide]", "values": [{"measurement": "Kd", "setting": "WDR5; [1]", "result": 2.21, "unit": "nM"}, {"measurement": "IC50", "setting": "MV4-11 cells", "result": 49, "unit": "nM"}]}, {"smiles": "C[C@@H]1CN(c2nccc(-c3cc(NC(=O)c4c[nH]c(=O)cc4C(F)(F)F)c(N4CCN(C)[C@H](C)C4)cc3F)n2)CCO1", "note": "(stereo in doubt) [Example 593, N-[4-fluoro-2-[(3R)-3,4-dimethylpiperazin-1-yl]-5-[2-[(2R)-2-methylmorpholin-4-yl]pyrimidin-4-yl]phenyl]-6-oxo-4-(trifluoromethyl)-1H-pyridine-3-carboxamide]", "values": [{"measurement": "Kd", "setting": "WDR5; [1]", "result": 0.737, "unit": "nM"}, {"measurement": "IC50", "setting": "MV4-11 cells", "result": 14, "unit": "nM"}]}, {"smiles": "CC1CN(c2nccc(-c3cc(NC(=O)c4c[nH]c(=O)cc4C(F)(F)F)c(N4C[C@@H](C)N(C)[C@@H](C)C4)cc3F)n2)CCO1", "note": "(stereo in doubt) [Example 594, N-[4-fluoro-5-[2-[(2R)-2-methylmorpholin-4-yl]pyrimidin-4-yl]-2-[(3S,5R)-3,4,5-trimethylpiperazin-1-yl]phenyl]-6-oxo-4-(trifluoromethyl)-1H-pyridine-3-carboxamide]", "values": [{"measurement": "Kd", "setting": "WDR5; [1]", "result": 0.712, "unit": "nM"}, {"measurement": "IC50", "setting": "MV4-11 cells", "result": 19, "unit": "nM"}]}, {"smiles": "CC1CN(c2cc(F)c(-c3csc(N4CCOCC4)n3)cc2NC(=O)c2c[nH]c(=O)cc2C(F)(F)F)CCN1C", "note": "(stereo in doubt) [Example 617, N-[4-fluoro-5-(2-morpholin-4-yl-1,3-thiazol-4-yl)-2-[(3R)-3,4-dimethylpiperazin-1-yl]phenyl]-6-oxo-4-(trifluoromethyl)-1H-pyridine-3-carboxamide]", "values": [{"measurement": "Kd", "setting": "WDR5; [1]", "result": 558000, "unit": "nM"}, {"measurement": "IC50", "setting": "MV4-11 cells", "result": 36, "unit": "nM"}]}, {"smiles": "C[C@@H]1CN(c2cc(F)c(-c3cnc(N4CCOCC4)nc3)cc2NC(=O)c2c[nH]nc2C(F)(F)F)C[C@H](C)N1C", "note": "[Example 42, N-[4-fluoro-5-(2-morpholin-4-ylpyrimidin-5-yl)-2-[(3R,5S)-3,4,5-trimethylpiperazin-1-yl]phenyl]-3-(trifluoromethyl)-1H-pyrazole-4-carboxamide]", "values": [{"measurement": "residence time", "setting": "WDR5; τ=1/koff, Table 2, read-out: Residence Time (t, min)", "result": 3.45, "unit": "min"}, {"measurement": "IC50", "setting": "MV4-11 cells", "result": 428, "unit": "nM"}]}, {"smiles": "C[C@@H]1CN(c2cc(F)c(-c3ccc4c(c3)OCO4)cc2NC(=O)c2c[nH]c(=O)cc2C(F)(F)F)C[C@H](C)N1C", "note": "[Example 63, N-[5-(1,3-benzodioxol-5-yl)-4-fluoro-2-[(3R,5S)-3,4,5-trimethylpiperazin-1-yl]phenyl]-6-oxo-4-(trifluoromethyl)-1H-pyridine-3-carboxamide]", "values": [{"measurement": "Kd", "setting": "WDR5; surface plasmon resonance (SPR) assay", "result": 0.694, "unit": "nM"}, {"measurement": "IC50", "setting": "MV4-11 cells", "result": 206, "unit": "nM"}]}]}
